Results taken from publication PMC2823959 (Analytical biochemistry, 2009).

Target: taurine/α-ketoglutarate dioxygenase (TauD) (Escherichia coli, UniProt P37610)
Assay: UV difference absorption titration of apoprotein with global regression analysis
Type: binding

Sequence of taurine/α-ketoglutarate dioxygenase (TauD) (P37610 2-283): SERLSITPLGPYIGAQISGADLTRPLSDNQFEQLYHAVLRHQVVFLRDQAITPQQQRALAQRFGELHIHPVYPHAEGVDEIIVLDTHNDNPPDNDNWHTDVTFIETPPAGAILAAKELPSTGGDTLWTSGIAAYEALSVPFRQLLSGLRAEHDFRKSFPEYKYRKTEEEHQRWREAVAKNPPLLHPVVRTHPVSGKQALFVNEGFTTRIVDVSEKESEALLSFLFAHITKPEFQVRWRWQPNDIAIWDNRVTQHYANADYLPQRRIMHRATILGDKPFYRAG

NCCS(=O)(=O)O [taurine]
Kd: 175 ± 10 µM
